Results from patent US7084176B2, “N-arylphenylacetamide derivatives and medicinal compositions containing the same” (Dainippon Pharmaceutical Co., Ltd., priority 2001, dated 2006).
Where two headings read alike, the source gives them in different places.

Test system: male Std:ddY mice
Test: Phenyl-1,4-benzoquinone-induced writhing test
Type: in vivo
Settings: for inhibition in vivo at 10 mg/kg / ED50 / inhibition in vivo at 1 mg/kg: Mus musculus; for inhibition in vivo at 10 mg/kg / inhibition in vivo at 1 mg/kg: 1 h, read-out: Inhibitory percentage (%); for inhibition in vivo at 10 mg/kg / Inhibitory percentage (%): orally administered at a dose of 10 mg/kg; for inhibition in vivo at 10 mg/kg / inhibition in vivo at 1 mg/kg / Inhibitory percentage (%): 60 minutes before PBQ; for ED50 / ED50 (mg/kg sc) / ED50 (mg/kg po) / Inhibitory percentage (%): writhing inhibition; for ED50 / ED50 (mg/kg sc) / ED50 (mg/kg po): logit analysis; for inhibition in vivo at 1 mg/kg: subcutaneously administered at a dose of 1 mg/kg
Protocol: Phenyl-1,4-benzoquinone-induced Writhing Test Referring to the method disclosed in Proc. Soc. exp. Biol. […] For oral administration, a test compound was suspended in 0.5% tragacanth solution. […] In the control group, a physiological saline solution containing 10% Tween 80 and 10% ethanol was administered in the case of subcutaneous administration, or a 0.5% tragacanth solution was administered in the case of oral administration. The number of writhing movements in the test compound-treated group was compared with that in the control group, and the writhing inhibitory percentage was calculated therefrom and considered as an analgesic effect. Writhing inhibitory percentage (%)=[(A−B)/A]×100 In the above equation, A means the number of writhing movements in the control group, and B means the number of writhing movements in the test compound-treated group. From the writhing inhibitory percentage of the test compound, ED50 (mg/kg) was calculated by logit analysis.

[1] = po, oral administration, read-out: ED50 (mg/kg po)
[2] = sc, subcutaneous administration, read-out: ED50 (mg/kg sc)

SMILES | inhibition in vivo at 10 mg/kg (po) [%] | ED50 [1] [mg/kg] | inhibition in vivo at 1 mg/kg (sc) [%] | also measured
COc1cc(CC(=O)Nc2cccc(-c3ccsc3)c2)ccc1OCCN [Example 161, 4-(2-aminoethoxy)-3-methoxy-N-[3-(thiophen-3-yl)phenyl]-phenylacetamide] | 79.4 | 2.79 | – | –
COc1cc(CC(=O)Nc2cccc(C#Cc3ccccc3)c2)ccc1O [Example 36, 4-hydroxy-3-methoxy-N-[3-(2-phenylethynyl)phenyl]phenylacetamide] | – | – | 92.3 | ED50 (mg/kg sc) (subcutaneous administration, listed as Ex. 36): 0.046 mg/kg
COc1cc(CC(=O)Nc2cccc(-c3ccc(F)cc3)c2)ccc1OCCN [Example 124, 4-(2-aminoethoxy)-N-[3-(4-fluorophenyl)phenyl]-3-methoxyphenylacetamide] | 100 | ≤ 1 | – | ED50 (mg/kg po) (oral administration, listed as Ex. 124): 0.71 mg/kg
COc1cc(CC(=O)Nc2cc(-c3ccccc3)cc(F)c2OC)ccc1OCCN [Example 171, 4-(2-aminoethoxy)-N-[(2-methoxy-3-fluoro-5-phenyl)phenyl]-3-methoxyphenylacetamide] | – | – | – | ED50 (mg/kg po) (oral administration, listed as Ex. 171): 0.96 mg/kg; Inhibitory percentage (%): 94.0%
COc1cc(CC(=O)Nc2cccc(CCc3cccc(C)c3)c2)ccc1OCCN [Example 217, 4-(2-aminoethoxy)-3-methoxy-N-[3-[2-(3-methylphenyl)ethyl]-phenyl]phenylacetamide] | 96.3 | 1.13 | – | –
CS(=O)(=O)Nc1cc(CC(=O)Nc2cccc(C3CCCCC3)c2)ccc1O [Ex. 34, N-(3-cyclohexylphenyl)-4-hydroxy-3-(methanesulfonylamino)phenylacetamide] | – | – | 41.5 | ED50 [2]: 0.48 mg/kg
COc1cc(CC(=O)Nc2cccc(N3CCCC(C)C3)c2)ccc1O (stereo not shown) [Example 88, N-[3-(3-methylpiperidin-1-yl)phenyl]-4-hydroxy-3-methoxyphenylacetamide] | – | – | 76.6 | –
COc1cc(CC(=O)Nc2cccc(-c3cccc4ccccc34)c2)ccc1OCCN [Example 163, 4-(2-aminoethoxy)-3-methoxy-N-[3-(naphthalen-1-yl)phenyl]-phenylacetamide] | 87.9 | 1.61 | – | –
COc1cc(CC(=O)Nc2cc(-c3ccccc3)cc(C(F)(F)F)c2)ccc1OCCN [Example 178, 4-(2-aminoethoxy)-3-methoxy-N-[(3-trifluoromethyl-5-phenyl)-phenyl]phenylacetamide] | – | – | – | ED50 (mg/kg po) (oral administration): 1.65 mg/kg; Inhibitory percentage (%): 100%
COc1cc(CC(=O)Nc2ccccc2Cc2ccccc2)ccc1O [Ex. 97, N-(2-benzylphenyl)-4-hydroxy-3-methoxyphenylacetamide] | – | – | 54.9 | –
COc1cc(CC(=O)Nc2cccc(CCc3ccccc3)c2)ccc1O [Example 54, 4-hydroxy-3-methoxy-N-[3-(2-phenylethyl)phenyl]phenylacetamide] | – | – | 90.4 | ED50 [2]: ≤ 0.1 mg/kg; ED50 (mg/kg sc) (subcutaneous administration, listed as Ex. 54): 0.081 mg/kg
COc1ccc(-c2ccccc2)cc1NC(=O)Cc1ccc(OCCN)c(OC)c1 [Example 177, 4-(2-aminoethoxy)-3-methoxy-N-[(2-methoxy-5-phenyl)phenyl]-phenylacetamide] | – | – | – | ED50 (mg/kg po) (oral administration): 3.41 mg/kg; Inhibitory percentage (%): 78.9%
COc1cc(CC(=O)Nc2cccc(-c3cccc(-c4ccccc4)c3)c2)ccc1OCCN [Example 145, 4-(2-aminoethoxy)-3-methoxy-N-[3-(3-phenylphenyl)phenyl]-phenylacetamide] | 85.9 | – | – | –
COc1cc(CC(=O)Nc2cccc(C3C4CC5CC(C4)CC3C5)c2)ccc1O (stereo not shown) [Example 3, N-[3-(adamantan-2-yl)phenyl]-4-hydroxy-3-methoxyphenylacetamide] | – | – | 91.3 | ED50 [2]: 0.46 mg/kg
COc1cc(CC(=O)Nc2cccc(-c3ccc(C(F)(F)F)cc3)c2)ccc1OCCN [Example 140, 4-(2-aminoethoxy)-3-methoxy-N-[3-(4-trifluoromethylphenyl)-phenyl]phenylacetamide] | 91 | 2.18 | – | –
COc1cc(CC(=O)Nc2cccc(C3CCC(C(F)(F)F)CC3)c2)ccc1O (stereo not shown) [Example 81, 4-hydroxy-3-methoxy-N-[3-(4-trifluoromethylcyclohexan-1-yl)-phenyl]phenylacetamide] | – | – | 100 | –
COc1cc(CC(=O)Nc2cccc(C3CC(C)CC(C)C3)c2)ccc1O (stereo not shown) [Example 85, N-[3-(3,5-dimethylcyclohexan-1-yl)phenyl]-4-hydroxy-3-methoxyphenylacetamide] | – | – | 76.9 | ED50 [2]: 0.31 mg/kg
COc1cc(CC(=O)Nc2cccc(C3=CCC(C(C)(C)C)CC3)c2)ccc1O (stereo not shown) [Example 80, N-[3-(4-tert-butylcyclohexen-1-yl)phenyl]-4-hydroxy-3-methoxyphenylacetamide] | – | – | 100 | ED50 [2]: 0.37 mg/kg
COc1cc(CC(=O)Nc2cccc(-c3c(C)cc(C)cc3C)c2)ccc1OCCN [Example 133, 4-(2-aminoethoxy)-3-methoxy-N-[3-(2,4,6-trimethylphenyl)-phenyl]phenylacetamide] | 94 | 1.28 | – | –
COc1cc(CC(=O)Nc2cccc(-c3ccccc3Cl)c2)ccc1OCCN [Example 125, 4-(2-aminoethoxy)-N-[3-(2-chlorophenyl)phenyl]-3-methoxyphenylacetamide] | 93 | ≤ 1 | – | ED50 (mg/kg po) (oral administration, listed as Ex. 125): 0.71 mg/kg
COc1cc(CC(=O)Nc2cccc(C3CCC(C(C)(C)C)CC3)c2)ccc1OC(=O)C(C)(C)C (stereo not shown) [Example 71, 4-tert-butylcarbonyloxy-N-[3-(4-tert-butylcyclohexan-1-yl)-phenyl]-3-methoxyphenylacetamide] | – | – | 94.2 | ED50 [2]: 0.16 mg/kg
COc1cc(CC(=O)Nc2cc(-c3ccccc3)c(C)c(-c3ccccc3)c2)ccc1OCCN [Example 181, 4-(2-aminoethoxy)-3-methoxy-N-[(4-methyl-3,5-diphenyl)-phenyl]phenylacetamide] | – | – | – | ED50 (mg/kg po) (oral administration): 1.11 mg/kg; Inhibitory percentage (%): 80.9%
COc1cc(CC(=O)Nc2ccc3c(c2)C(=O)C(Cc2ccccc2)CC3)ccc1O (stereo not shown) [Example 249, 4-hydroxy-3-methoxy-N-[1-oxo-2-phenylmethyl-1,2,3,4-tetrahydronaphthalen-7-yl]phenylacetamide] | – | – | 89.4 | ED50 (mg/kg sc) (subcutaneous administration, listed as Ex. 249): 0.043 mg/kg
COc1cc(CC(=O)Nc2cccc(-c3cccn3C(=O)OC(C)(C)C)c2)ccc1O [Example 101, 4-hydroxy-3-methoxy-N-[3-(1-tert-butoxycarbonylpyrrol-2-yl)-phenyl]phenylacetamide] | – | – | 100 | ED50 [2]: 0.23 mg/kg
COc1cc(CC(=O)Nc2cccc(C3CCC(C(C)(C)C)CC3)c2)ccc1OC(C)=O (stereo not shown) [Example 69, 4-acetoxy-N-[3-(4-tert-butylcyclohexan-1-yl)phenyl]-3-methoxyphenylacetamide] | 73.5 | 2.81 | 99 | ED50 [2]: ≤ 0.1 mg/kg; ED50 (mg/kg sc) (subcutaneous administration, listed as Ex. 69): 0.088 mg/kg
COc1cc(CC(=O)Nc2cccc(-c3ccccc3-c3ccccc3)c2)ccc1OCCN [Example 143, 4-(2-aminoethoxy)-3-methoxy-N-[3-(2-phenylphenyl)phenyl]-phenylacetamide] | 73.2 | 3.72 | – | –
COc1cc(CC(=O)Nc2cccc(N3CCCC(c4ccccc4)C3)c2)ccc1OCCN (stereo not shown) [Example 200, 4-(2-aminoethoxy)-3-methoxy-N-[3-(3-phenylpiperidin-1-yl)-phenyl]phenylacetamide] | 84.2 | – | – | –
